Test results reported in ChEMBL document CHEMBL3301361, “Experimental in vitro DMPK and physicochemical data on a set of publicly disclosed compounds”.
Converted amounts (≈) assume the structure as drawn.

Assays:
in vitro [1] = conditions: human, hepatocytes
physchem [2] = conditions: octan-1-ol/water
physchem [3] = conditions: pH 7.4 buffer
in vitro [4] = conditions: human, plasma
in vitro [5] = conditions: SD, HW or BN, rat, plasma
in vitro [6] = conditions: human
in vitro [7] = conditions: hepatocytes

C[C@]12CC[C@H](O)CC1=CCC1C2CC[C@]2(C)C(n3cnc4ccccc43)=CCC12 (some centres not stated)
hepatocyte CLint (in vitro [1]): 34.7 µL/min/1e6 cells

Cc1c(Cl)cccc1S(=O)(=O)N1CCC[C@H](C(=O)NC2CCCCC2)C1
hepatocyte CLint (in vitro [1]): 18.6 µL/min/1e6 cells

CC(C)(C)NC(=O)NCCN1CCC(CO)(CNC(=O)c2cc(Cl)cc(Cl)c2)CC1
hepatocyte CLint (in vitro [1]): 7.08 µL/min/1e6 cells

O=C(O)CC[C@@H](Cc1ccc(OCc2ccccc2)cc1)NC(=O)CCCCCCc1ccccc1
hepatocyte CLint (in vitro [1]): 17.4 µL/min/1e6 cells

Cc1c[nH]c(-c2cnc(NCCNc3ccc(C#N)cn3)nc2-c2ccc(Cl)cc2Cl)n1 [LADUVIGLUSIB]
logD (physchem [2]; pH 7.4, LogD7.4): 3.86 | solubility thermodynamic (physchem [3]): 0.4 µM (≈ 0.186 µg/mL) | fraction unbound at 5 h (in vitro [4]; PPB): 0.0187 | fraction unbound at 5 h (in vitro [5]): 0.0447 | microsomal CLint (in vitro [6]; microsomes): 96 µL/min/mg | hepatocyte CLint (in vitro [7]): 108 µL/min/1e6 cells

COCCOc1cc(-c2cccc3c(=O)cc(N4CCOCC4)oc23)ccc1NC(=O)CN1CCOCC1
hepatocyte CLint (in vitro [1]): 43.6 µL/min/1e6 cells

Cc1cc(C)nc(Nc2cccc(C(F)(F)F)c2)n1
hepatocyte CLint (in vitro [1]): 36.3 µL/min/1e6 cells

Cc1ccc(S(=O)(=O)Nc2c(C(=O)N[C@@H](C)C(C)(C)C)c(C)nn2C2CCSCC2)cc1
logD (physchem [2]; pH 7.4, LogD7.4): 1.29 | solubility thermodynamic (physchem [3]): 912 µM (≈ 437 µg/mL) | fraction unbound at 5 h (in vitro [4]; PPB): 0.0532 | fraction unbound at 5 h (in vitro [5]): 0.0661 | microsomal CLint (in vitro [6]; liver microsomes): 25 µL/min/mg | hepatocyte CLint (in vitro [7]): 5 µL/min/1e6 cells

O=C(O)C1(c2ccc(-c3ccc(Cl)c(Cl)c3)c(F)c2)CC1
hepatocyte CLint (in vitro [1]): 38.9 µL/min/1e6 cells

CS(=O)(=O)C1(c2cc(N3CCOCC3)nc(-c3cccc4[nH]ncc34)n2)CC1
hepatocyte CLint (in vitro [1]): < 3 µL/min/1e6 cells

CCCS(=O)(=O)Nc1ccc(F)c(C(=O)c2c[nH]c3ncc(-c4ccc(Cl)cc4)cc23)c1F [VEMURAFENIB]
hepatocyte CLint (in vitro [1]): 6.61 µL/min/1e6 cells

COc1cc(N2CCN(C(=O)[C@@H](C)O)CC2)ccc1Nc1ncc(Cl)c(-c2cnc3ccccn23)n1
hepatocyte CLint (in vitro [1]): 12.6 µL/min/1e6 cells

C[C@]12CC[C@H]3[C@@H](CCC4=CC(=O)CC[C@@]43C)[C@@H]1CC[C@@H]2O [TESTOSTERONE]
hepatocyte CLint (in vitro [1]): > 150 µL/min/1e6 cells

C[C@H]1COCCN1c1nc(N2CCOC[C@@H]2C)c2ccc(-c3ccc4nc[nH]c(=O)c4c3)nc2n1
hepatocyte CLint (in vitro [1]): > 150 µL/min/1e6 cells

Cc1cc(CC(=O)O)n(C)c1C(=O)c1ccc(Cl)cc1 [ZOMEPIRAC]
hepatocyte CLint (in vitro [1]): < 3 µL/min/1e6 cells

CC(C)(Cc1cccc(CC(=O)NCc2cccc(-c3ccc(O)cc3)c2)c1)NC[C@H](O)c1ccc(O)c(NS(C)(=O)=O)c1 [PF-00610355]
logD (physchem [2]; pH 7.4, LogD7.4): 1.91 | solubility thermodynamic (physchem [3]): 57.5 µM (≈ 35.5 µg/mL) | fraction unbound at 5 h (in vitro [4]; PPB): 0.0053 | fraction unbound at 5 h (in vitro [5]): 0.0818 | microsomal CLint (in vitro [6]; liver microsomes): 99 µL/min/mg | hepatocyte CLint (in vitro [7]): 37 µL/min/1e6 cells

Nc1ncc(-c2ccc(S(=O)(=O)N3CCCC3)cc2)nc1C(=O)Nc1cccnc1
hepatocyte CLint (in vitro [1]): < 3 µL/min/1e6 cells

O=C(O)C1CSC(c2ccccc2Cl)N1C(=O)c1ccc(Cl)cc1 (configuration not stated)
hepatocyte CLint (in vitro [1]): 15.5 µL/min/1e6 cells

Cc1ccc2nc(C(=O)O)[nH]c2c1
hepatocyte CLint (in vitro [1]): 9.77 µL/min/1e6 cells

COc1ccc(/C=C2\NC(=O)NC2=O)cc1
hepatocyte CLint (in vitro [1]): 39.8 µL/min/1e6 cells

O=C1Nc2ccc(Cl)cc2[C@@](C#CC2CC2)(C(F)(F)F)O1 [EFAVIRENZ]
hepatocyte CLint (in vitro [1]): 8.51 µL/min/1e6 cells

COc1ncccc1-c1cccc2c(N)c3c(nc12)CN(C1CCC1)C3=O
hepatocyte CLint (in vitro [1]): 4.88 µL/min/1e6 cells

O=C1NC(=O)C(=CC=Cc2ccccc2)S1
hepatocyte CLint (in vitro [1]): 10.5 µL/min/1e6 cells

COc1ccccc1SC[C@@H](C)CN[C@@H]1COc2ccccc2SC1
hepatocyte CLint (in vitro [1]): 51.3 µL/min/1e6 cells

Cc1ccc(-c2cc(C(F)(F)F)nn2-c2ccc([S+](C)[O-])cc2)cc1 (configuration not stated)
hepatocyte CLint (in vitro [1]): 14.8 µL/min/1e6 cells

Cn1cnc2c(-c3ccc(C4(N)CCC4)cc3)c(-c3ccccc3)ccc21
hepatocyte CLint (in vitro [1]): 3.31 µL/min/1e6 cells

O=C(O)c1ccc(-n2nc(C(F)(F)F)cc2-c2ccc(C(F)(F)F)cc2)cc1
hepatocyte CLint (in vitro [1]): 9.33 µL/min/1e6 cells

Clc1ccc(Cn2c(-c3nn[nH]n3)cc3ccccc32)cc1Cl
hepatocyte CLint (in vitro [1]): 12.9 µL/min/1e6 cells

NS(=O)(=O)c1ccc(-n2nc(C(F)(F)F)cc2-c2ccc(C(F)(F)F)cc2)cc1
hepatocyte CLint (in vitro [1]): 18.2 µL/min/1e6 cells

CCOc1ccc2nc3ccc(=O)cc-3oc2c1 [ETHOXYRESORUFIN]
hepatocyte CLint (in vitro [1]): > 150 µL/min/1e6 cells

NC1(c2ccc(-c3ncc4cnccc4c3-c3ccccc3)cc2)CCC1
hepatocyte CLint (in vitro [1]): > 150 µL/min/1e6 cells

C[C@]12CC[C@H](O)CC1=CC[C@@H]1[C@@H]2CC[C@]2(C)C(c3cccnc3)=CC[C@@H]12 [ABIRATERONE]
hepatocyte CLint (in vitro [1]): 55 µL/min/1e6 cells

NC1(c2ccc(-c3c(-c4ccccc4)ccn4ncnc34)cc2)CCC1
hepatocyte CLint (in vitro [1]): < 3 µL/min/1e6 cells

Nc1c(-c2ccccc2)nc(Cl)nc1-c1ccccc1
hepatocyte CLint (in vitro [1]): 46.8 µL/min/1e6 cells

Clc1ccc(COc2ccc(Br)cc2CN2CCOCC2)cc1
hepatocyte CLint (in vitro [1]): 55 µL/min/1e6 cells

COCCC(C)n1nc(C)c(C(=O)N[C@@H](C)C(C)(C)C)c1NS(=O)(=O)c1ccc(C)cc1 (some centres not stated)
logD (physchem [2]; pH 7.4, LogD7.4): 0.78 | fraction unbound at 5 h (in vitro [4]; PPB): 0.101 | fraction unbound at 5 h (in vitro [5]): 0.276 | microsomal CLint (in vitro [6]; microsomes): 3.9 µL/min/mg | hepatocyte CLint (in vitro [7]): 9.9 µL/min/1e6 cells

Cc1ccc(S(=O)(=O)Nc2c(C(=O)NCC(C)(C)C)c(C)nn2-c2ccccc2)cc1
logD (physchem [2]; pH 7.4, LogD7.4): 1.46 | fraction unbound at 5 h (in vitro [4]; PPB): 0.0082 | fraction unbound at 5 h (in vitro [5]): 0.0335 | microsomal CLint (in vitro [6]; microsomes): 27 µL/min/mg | hepatocyte CLint (in vitro [7]): 18 µL/min/1e6 cells

Cc1ccc(-c2cccc(-c3nn[nH]n3)c2)cc1
hepatocyte CLint (in vitro [1]): 52.5 µL/min/1e6 cells

NC1(c2ccc(-c3ncc4cccn4c3-c3ccccc3)cc2)CCC1
hepatocyte CLint (in vitro [1]): < 3 µL/min/1e6 cells

Cc1ccc(S(=O)(=O)Nc2c(C(=O)N[C@@H](C)C(C)(C)C)c(C)nn2C2CCCC2)cc1
logD (physchem [2]; pH 7.4, LogD7.4): 2 | fraction unbound at 5 h (in vitro [4]; PPB): 0.0214 | fraction unbound at 5 h (in vitro [5]): 0.0268 | microsomal CLint (in vitro [6]; microsomes): 21 µL/min/mg | hepatocyte CLint (in vitro [7]): 8 µL/min/1e6 cells

COc1ccc(CC(C)(C)NC[C@H](O)c2cc(O)cc3c2OCC(=O)N3)cc1 [OLODATEROL]
logD (physchem [2]; pH 7.4, LogD7.4): 0.79 | fraction unbound at 5 h (in vitro [4]; PPB): 0.409 | fraction unbound at 5 h (in vitro [5]): 0.443 | microsomal CLint (in vitro [6]; liver microsomes): 14 µL/min/mg | hepatocyte CLint (in vitro [7]): 14 µL/min/1e6 cells

Cc1c(N(C)C)c(=O)n(-c2ccccc2)n1C [AMINOPYRINE]
hepatocyte CLint (in vitro [1]): 3.47 µL/min/1e6 cells

CCC[C@@H](CNC(=O)c1nc(Cl)c(N)nc1N)[N+](C)(C)CCCc1ccc(OC)cc1
logD (physchem [2]; pH 7.4, LogD7.4): 0.4 | fraction unbound at 5 h (in vitro [4]; PPB): 0.511 | fraction unbound at 5 h (in vitro [5]): 0.454 | microsomal CLint (in vitro [6]; microsomes): 87.1 µL/min/mg | hepatocyte CLint (in vitro [7]): 24 µL/min/1e6 cells

Cc1ccc(S(=O)(=O)Nc2c(C(=O)NC3CCCCC3)c(C)nn2-c2ccccc2)cc1
logD (physchem [2]; pH 7.4, LogD7.4): 1.68 | solubility thermodynamic (physchem [3]): 1410 µM (≈ 639 µg/mL) | fraction unbound at 5 h (in vitro [4]; PPB): 0.0014 | fraction unbound at 5 h (in vitro [5]): 0.0214 | microsomal CLint (in vitro [6]; liver microsomes): 38 µL/min/mg | hepatocyte CLint (in vitro [7]): 12 µL/min/1e6 cells

Cc1ccc(S(=O)(=O)Nc2c(C(=O)N[C@H](C)C(C)(C)C)c(C)nn2-c2ccccc2)cc1
logD (physchem [2]; pH 7.4, LogD7.4): 1.2 | solubility thermodynamic (physchem [3]): 1000 µM (≈ 455 µg/mL) | fraction unbound at 5 h (in vitro [4]; PPB): 0.0081 | fraction unbound at 5 h (in vitro [5]): 0.0374 | microsomal CLint (in vitro [6]; liver microsomes): 42 µL/min/mg | hepatocyte CLint (in vitro [7]): 8 µL/min/1e6 cells

Cc1ccc(-c2cc(C(F)(F)F)nn2-c2ccc(S(C)(=O)=O)cc2)cc1
hepatocyte CLint (in vitro [1]): 17.4 µL/min/1e6 cells

O=C(CN1CCOCC1)Nc1ccc(-c2cccc3c(=O)cc(N4CCOCC4)oc23)cc1OCCN1CCCC1
hepatocyte CLint (in vitro [1]): 5.5 µL/min/1e6 cells

Cc1cccc([C@H](C)c2c[nH]c(=S)[nH]2)c1C [REZATOMIDINE]
logD (physchem [2]; pH 7.4): 2.9 | fraction unbound at 5 h (in vitro [4]): 0.17 | fraction unbound at 5 h (in vitro [5]): 0.19 | microsomal CLint (in vitro [6]; microsomes): 24.6 µL/min/mg | hepatocyte CLint (in vitro [7]): 25.7 µL/min/1e6 cells

Nc1ccc2c(c1)Cc1cc(N)ccc1-2
hepatocyte CLint (in vitro [1]): 61.7 µL/min/1e6 cells

O=c1ccc2ccc(O)cc2o1 [UMBELLIFERONE]
hepatocyte CLint (in vitro [1]): 123 µL/min/1e6 cells

Cc1ccc(-c2cc(C(F)(F)F)nn2-c2ccc(C(=O)O)cc2)cc1
hepatocyte CLint (in vitro [1]): 10.7 µL/min/1e6 cells

COCC(C)n1nc(C)c(C(=O)N[C@@H](C)C(C)(C)C)c1NS(=O)(=O)c1ccc(C)cc1 (some centres not stated)
logD (physchem [2]; pH 7.4, LogD7.4): 0.61 | fraction unbound at 5 h (in vitro [4]; PPB): 0.0836 | fraction unbound at 5 h (in vitro [5]): 0.139 | microsomal CLint (in vitro [6]; liver microsomes): 6 µL/min/mg | hepatocyte CLint (in vitro [7]): < 3 µL/min/1e6 cells

Cc1ccc(S(=O)(=O)Nc2c(C(=O)N[C@@H](C)C(C)(C)C)c(C)nn2CC(F)(F)F)cc1
logD (physchem [2]; pH 7.4, LogD7.4): 0.93 | fraction unbound at 5 h (in vitro [4]; PPB): 0.0142 | fraction unbound at 5 h (in vitro [5]): 0.0274 | microsomal CLint (in vitro [6]; liver microsomes): 17 µL/min/mg | hepatocyte CLint (in vitro [7]): 18 µL/min/1e6 cells

O=C1NC(=O)C(c2cnc3ccccn23)=C1c1cn2c3c(cccc13)CN(C(=O)N1CCOCC1)CC2
logD (physchem [2]; pH 7.4, LogD7.4): 1.79 | solubility thermodynamic (physchem [3]): 0.6 µM (≈ 0.298 µg/mL) | fraction unbound at 5 h (in vitro [4]; PPB): 0.142 | fraction unbound at 5 h (in vitro [5]): 0.114 | microsomal CLint (in vitro [6]; liver microsomes): 42 µL/min/mg | hepatocyte CLint (in vitro [7]): 38 µL/min/1e6 cells

Cc1ccc(S(=O)(=O)Nc2c(C(=O)NC(C)C(C)(C)C)c(C)nn2-c2ccccc2)cc1 (configuration not stated)
logD (physchem [2]; pH 7.4, LogD7.4): 1.21 | fraction unbound at 5 h (in vitro [4]; PPB): 0.0127 | fraction unbound at 5 h (in vitro [5]): 0.0457 | microsomal CLint (in vitro [6]; liver microsomes): 31 µL/min/mg | hepatocyte CLint (in vitro [7]): 7 µL/min/1e6 cells

Cc1ccc(N2CC(COc3ccc(-c4noc(C)n4)cc3)C2)nn1
logD (physchem [2]; pH 7.4, LogD7.4): 2.62 | solubility thermodynamic (physchem [3]): 129 µM (≈ 43.5 µg/mL) | fraction unbound at 5 h (in vitro [4]; PPB): 0.062 | fraction unbound at 5 h (in vitro [5]): 0.0488 | microsomal CLint (in vitro [6]; microsomes): 26.3 µL/min/mg | hepatocyte CLint (in vitro [7]): 6 µL/min/1e6 cells
